Key:
Experiment in all cases: post-emergence herbicidal activity, greenhouse
Type in all cases: in vivo
Panicum Spp = details: Table II
Description: (§1) A good grade of top soil is placed in aluminum pans having holes in the bottom and compacted to a depth of 0.95 to 1.27 cm. from the top of the pan. A predetermined number of seeds of each of several dicotyledonous and monocotyledonous annual plant species and/or vegetative propagules for the perennial plant species are placed on the soil and pressed into the soil surface. The seeds and/or vegetative propagules are covered with soil and leveled. The pans are then placed on a sand bench in the greenhouse and watered from below as needed. After the plants reach the desired age (two to three weeks), each pan except for the control pans is removed individually to a spraying chamber and sprayed by means of an atomizer operating at a positive air pressure of approximately 1.46 kg/cm^2 absolute. The atomizer contains 6 ml. of a solution or suspension of the chemical. In that 6 ml., is an amount of a cyclohexanone emulsifying agent mixture to give a spray solution or suspension which contains about 0.4% by weight of the emulsifier. The spray solution or suspension contains a sufficient amount of the candidate chemical in order to give application rates corresponding to those set forth in the tables. The spray solution is prepared by taking an aliquot of a 1.0% by weight stock solution or suspension of the candidate chemical in an organic solvent such as acetone or tetrahydrofuran or in water. The emulsifying agent employed is a mixture comprising 35 weight percent butylamine dodecylbenzene sulfonate and 65 weight percent of a tall oil ethylene oxide condensate having about 11 moles of ethylene oxide per mole of tall oil. The pans are returned to the greenhouse and watered as before and the injury to the plants as compared to the control is observed at approximately two and four weeks as indicated in the tables under WAT and the results recorded. In some instances, the two-week observations are omitted.
(§2) The post-emergence herbicidal activity index used in Table I is as follows: […]

Barnyardgrass = system: Barnyardgrass
Description: as §1, §2

Cocklebur = system: Cocklebur
Description: as §1, §2

Quackgrass = details: Table I, 4 WAT
Description: as §1, §2

Yellow Nutsedge = details: Table I, 4 WAT
Description: as §1, §2

Smartweed = system: Smartweed
Description: as §1, §2

Crabgrass = details: Table II
Description: as §1, §2

Sugar Beet = details: Table II
Description: as §1, §2

Lambsquarters = system: Lambsquarters
Description: as §1, §2

Rice = details: Table II
Description: as §1, §2

Sorghum = details: Table II
Description: as §1, §2

Wild Buckwheat = details: Table II
Description: as §1, §2

Johnsongrass = details: Table I, 4 WAT
Description: as §1, §2

Velvetleaf = system: Velvetleaf
Description: as §1, §2

Downy Brome = system: Downy Brome
Description: as §1, §2

Morningglory = system: Morningglory
Description: as §1, §2

Soybean = details: Table II
Description: as §1, §2

Wheat = details: Table II
Description: as §1, §2

Hemp Sesbania = details: Table II
Description: as §1, §2

In the case of `N#CCN(CP(=O)(Oc1ccccc1)Oc1ccccc1)SSCCc1ccccc1` [XII, Phosphonic acid, [[(cyanomethyl)[(2-phenylethyl)dithio]amino]methyl]-, diphenyl ester], the “post-emergence herbicidal activity index” value (Panicum Spp; 2 WAT, 0.28 kg/h) is reported as 0 (0-24% control), the “post-emergence herbicidal activity index” value (Panicum Spp; 4 WAT, 1.12 kg/h) is reported as 0 (0-24% control) and the “post-emergence herbicidal activity index” value (Panicum Spp; 4 WAT, 5.6 kg/h) is reported as 1 (25-49% control). The “post-emergence herbicidal activity index” value (Barnyardgrass; Table I, 4 WAT, 5.6 kg/h) was 2 (50-74% control), the “post-emergence herbicidal activity index” value (Barnyardgrass; Table I, 4 WAT, 11.2 kg/h) was 2 (50-74% control) and the “post-emergence herbicidal activity index” value (Barnyardgrass; Table II, 2 WAT, 0.28 kg/h) was 0 (0-24% control). For the same compound, the “post-emergence herbicidal activity index” value (Barnyardgrass; Table II, 4 WAT, 1.12 kg/h) was 0 (0-24% control), the “post-emergence herbicidal activity index” value (Barnyardgrass; Table II, 4 WAT, 5.6 kg/h) was 2 (50-74% control) and the “post-emergence herbicidal activity index” value (Cocklebur; Table I, 4 WAT, 5.6 kg/h) was 2 (50-74% control). The “post-emergence herbicidal activity index” value (Cocklebur; Table I, 4 WAT, 11.2 kg/h) was 4 (100% control), the “post-emergence herbicidal activity index” value (Cocklebur; Table II, 2 WAT, 0.28 kg/h) was 0 (0-24% control) and the “post-emergence herbicidal activity index” value (Cocklebur; Table II, 4 WAT, 1.12 kg/h) was 0 (0-24% control). For the same compound, the “post-emergence herbicidal activity index” value (Cocklebur; Table II, 4 WAT, 5.6 kg/h) was 2 (50-74% control), the “post-emergence herbicidal activity index” value (Quackgrass; 5.6 kg/h) was 0 (0-24% control) and the “post-emergence herbicidal activity index” value (Quackgrass; 11.2 kg/h) was 3 (75-99% control). For the same compound, the “post-emergence herbicidal activity index” value (Yellow Nutsedge; 5.6 kg/h) was 2 (50-74% control), the “post-emergence herbicidal activity index” value (Yellow Nutsedge; 11.2 kg/h) was 2 (50-74% control) and the “post-emergence herbicidal activity index” value (Smartweed; Table I, 4 WAT, 5.6 kg/h) was 0 (0-24% control). The “post-emergence herbicidal activity index” value (Smartweed; Table I, 4 WAT, 11.2 kg/h) was 3 (75-99% control), the “post-emergence herbicidal activity index” value (Smartweed; Table II, 2 WAT, 0.28 kg/h) was 0 (0-24% control) and the “post-emergence herbicidal activity index” value (Smartweed; Table II, 4 WAT, 1.12 kg/h) was 0 (0-24% control). The “post-emergence herbicidal activity index” value (Smartweed; Table II, 4 WAT, 5.6 kg/h) was 2 (50-74% control), the “post-emergence herbicidal activity index” value (Crabgrass; 2 WAT, 0.28 kg/h) was 0 (0-24% control) and the “post-emergence herbicidal activity index” value (Crabgrass; 4 WAT, 1.12 kg/h) was 0 (0-24% control). For the same compound, the “post-emergence herbicidal activity index” value (Crabgrass; 4 WAT, 5.6 kg/h) was 3 (75-99% control), the “post-emergence herbicidal activity index” value (Sugar Beet; 2 WAT, 0.28 kg/h) was 0 (0-24% control) and the “post-emergence herbicidal activity index” value (Sugar Beet; 4 WAT, 1.12 kg/h) was 0 (0-24% control). For the same compound, the “post-emergence herbicidal activity index” value (Sugar Beet; 4 WAT, 5.6 kg/h) was 1 (25-49% control), the “post-emergence herbicidal activity index” value (Lambsquarters; Table I, 4 WAT, 5.6 kg/h) was 4 (100% control) and the “post-emergence herbicidal activity index” value (Lambsquarters; Table I, 4 WAT, 11.2 kg/h) was 4 (100% control). For the same compound, the “post-emergence herbicidal activity index” value (Lambsquarters; Table II, 2 WAT, 0.28 kg/h) was 0 (0-24% control), the “post-emergence herbicidal activity index” value (Lambsquarters; Table II, 4 WAT, 1.12 kg/h) was 0 (0-24% control) and the “post-emergence herbicidal activity index” value (Lambsquarters; Table II, 4 WAT, 5.6 kg/h) was 3 (75-99% control). The “post-emergence herbicidal activity index” value (Rice; 2 WAT, 0.28 kg/h) was 0 (0-24% control), the “post-emergence herbicidal activity index” value (Rice; 4 WAT, 1.12 kg/h) was 0 (0-24% control) and the “post-emergence herbicidal activity index” value (Rice; 4 WAT, 5.6 kg/h) was 0 (0-24% control). The “post-emergence herbicidal activity index” value (Sorghum; 2 WAT, 0.28 kg/h) was 0 (0-24% control), the “post-emergence herbicidal activity index” value (Sorghum; 4 WAT, 1.12 kg/h) was 1 (25-49% control) and the “post-emergence herbicidal activity index” value (Sorghum; 4 WAT, 5.6 kg/h) was 3 (75-99% control). For the same compound, the “post-emergence herbicidal activity index” value (Wild Buckwheat; 2 WAT, 0.28 kg/h) was 0 (0-24% control), the “post-emergence herbicidal activity index” value (Wild Buckwheat; 4 WAT, 1.12 kg/h) was 0 (0-24% control) and the “post-emergence herbicidal activity index” value (Wild Buckwheat; 4 WAT, 5.6 kg/h) was 2 (50-74% control). The “post-emergence herbicidal activity index” value (Johnsongrass; 5.6 kg/h) was 1 (25-49% control), the “post-emergence herbicidal activity index” value (Johnsongrass; 11.2 kg/h) was 4 (100% control) and the “post-emergence herbicidal activity index” value (Velvetleaf; Table I, 4 WAT, 5.6 kg/h) was 0 (0-24% control). The “post-emergence herbicidal activity index” value (Velvetleaf; Table I, 4 WAT, 11.2 kg/h) was 2 (50-74% control), the “post-emergence herbicidal activity index” value (Velvetleaf; Table II, 2 WAT, 0.28 kg/h) was 0 (0-24% control) and the “post-emergence herbicidal activity index” value (Velvetleaf; Table II, 4 WAT, 1.12 kg/h) was 0 (0-24% control). The “post-emergence herbicidal activity index” value (Velvetleaf; Table II, 4 WAT, 5.6 kg/h) was 2 (50-74% control), the “post-emergence herbicidal activity index” value (Downy Brome; Table I, 4 WAT, 5.6 kg/h) was 0 (0-24% control) and the “post-emergence herbicidal activity index” value (Downy Brome; Table I, 4 WAT, 11.2 kg/h) was 3 (75-99% control). The “post-emergence herbicidal activity index” value (Downy Brome; Table II, 2 WAT, 0.28 kg/h) was 0 (0-24% control), the “post-emergence herbicidal activity index” value (Downy Brome; Table II, 4 WAT, 1.12 kg/h) was 0 (0-24% control) and the “post-emergence herbicidal activity index” value (Downy Brome; Table II, 4 WAT, 5.6 kg/h) was 2 (50-74% control). For the same compound, the “post-emergence herbicidal activity index” value (Morningglory; Table I, 4 WAT, 5.6 kg/h) was 1 (25-49% control), the “post-emergence herbicidal activity index” value (Morningglory; Table I, 4 WAT, 11.2 kg/h) was 1 (25-49% control) and the “post-emergence herbicidal activity index” value (Morningglory; Table II, 2 WAT, 0.28 kg/h) was 0 (0-24% control). For the same compound, the “post-emergence herbicidal activity index” value (Morningglory; Table II, 4 WAT, 1.12 kg/h) was 0 (0-24% control), the “post-emergence herbicidal activity index” value (Morningglory; Table II, 4 WAT, 5.6 kg/h) was 1 (25-49% control) and the “post-emergence herbicidal activity index” value (Soybean; 2 WAT, 0.28 kg/h) was 0 (0-24% control). The “post-emergence herbicidal activity index” value (Soybean; 4 WAT, 1.12 kg/h) was 0 (0-24% control), the “post-emergence herbicidal activity index” value (Soybean; 4 WAT, 5.6 kg/h) was 1 (25-49% control) and the “post-emergence herbicidal activity index” value (Wheat; 2 WAT, 0.28 kg/h) was 0 (0-24% control). The “post-emergence herbicidal activity index” value (Wheat; 4 WAT, 1.12 kg/h) was 0 (0-24% control), the “post-emergence herbicidal activity index” value (Wheat; 4 WAT, 5.6 kg/h) was 1 (25-49% control) and the “post-emergence herbicidal activity index” value (Hemp Sesbania; 2 WAT, 0.28 kg/h) was 0 (0-24% control). For the same compound, the “post-emergence herbicidal activity index” value (Hemp Sesbania; 4 WAT, 1.12 kg/h) was 0 (0-24% control) and the “post-emergence herbicidal activity index” value (Hemp Sesbania; 4 WAT, 5.6 kg/h) was 1 (25-49% control).

Reference: US4508663A, “Process for preparing thiosulfenamide derivatives of N-phosphonomethylglycinonitriles” (Monsanto Company, priority 1983, dated 1985)
